These are literature values, as cited in US20260083687A1, “COMPOUNDS FOR REDUCING LACTATION AND IMPROVING HEALTH” (AHV International B.V., priority 2022, published 2026).

Each structure is given as a SMILES string.

For one data set, the system named is goats. As to conditions: single injection 5.6 mg at dry-off; cited from earlier work.
For the next data set, the system named is dairy cows. As to conditions: single injection 5.6 mg at dry-off, cited from earlier work.
The subject of the next data set is cows. Particulars: cited from earlier work.

As to `C=CCN1C[C@H](C(=O)N(CCCN(C)C)C(=O)NCC)C[C@@H]2c3cccc4[nH]cc(c34)C[C@H]21` [cabergoline], the milk reduction in the data set on goats was 28%; in the data set on dairy cows (dairy cows), 22%. In the data set on dairy cows, the “duration of reduced prolactin after dry-off” value is “up to 8 days”.

Take `CCCN1CC(NS(=O)(=O)N(CC)CC)CC2Cc3c(O)cccc3CC21` (stereo not drawn) [quinagolide]: in the data set on cows (1 mg daily i.m. during 9 weeks, early lactation, last 4 weeks of treatment), the “lower milk production compared with the placebo group” value is recorded as 5.3 kg/day. In addition, the Milk production in the data set on cows (4 mg i.m. twice a day from 5 days before until 13 days after dry-off, placebo 25 kg/day) was 18 kg/day. For the same compound, the “decreased milk production compared with the placebo group” value with cows (Ollier, Zhao and Lacasse (2014)) is 7 L.
